# Source: ChEMBL document CHEMBL4402605, “A Chemical Switch for Transforming a Purine Agonist for Toll-like Receptor 7 to a Clinically Relevant Antagonist” (J Med Chem, 2020)
# Active and inactive are the calls of the source. The rule behind the calls is not given here.
# Tests used:
# [1] = tested on: Mus musculus; test: (§1) Protection against imiquimod-induced C57BL/6 mouse model of psoriasis assessed as reduction in MX2 mRNA expression at 15 mg/kg, po administered via gavage treated 1 day prior to imiquimod application and subsequent daily dosing for 7 consecutive days and measured post-last dose by SYBR green dye based qPCR analysis; type: functional, organism-based
# [2] = Clearance in mouse liver microsomes at 100 uM by LC-MS/MS analysis relative to hepatic blood flow
# [3] = tested on: Mus musculus; test: as §1, with “suppression of parakeratosis” for “reduction in MX2 mRNA expression”, “H and E staining” for “SYBR green dye”, “histopathological” for “qPCR”; type: functional
# [4] = Toxicity in C57BL/6 mouse assessed as change in liver parenchymal architecture at 15 mg/kg, po administered once daily via gavage for 7 consecutive days and measured post-last dose by H and E staining based histomorphological analysis; type: organism-based; settings: in vivo
# [5] = Toxicity in C57BL/6 mouse assessed as behavioral changes at 15 mg/kg, po administered once daily via gavage for 7 consecutive days and measured post-last dose by H and E staining based histomorphological analysis; type: organism-based; settings: in vivo
# [6] = Oral bioavailability in C57BL/6 mouse at 15 mg/kg administered via gavage by LC-MS/MS analysis; type: ADME, organism-based; settings: in vivo
# [7] = tested on: Mus musculus; test: as §1, with “suppression of hyperkeratosis” for “reduction in MX2 mRNA expression”, “H and E staining” for “SYBR green dye”, “histopathological” for “qPCR”; type: functional
# [8] = biological target: T1, Toll-like receptor 7 (Homo sapiens) (UniProt Q9NYK1); test: Antagonist activity at human TLR7 expressed in HEK-Blue cells assessed as inhibition of CL264-induced IL-6 mRNA expression at 5 uM preincubated for 1 hr followed by CL264 stimulation and measured after 6 hrs by SYBR green dye based RT-PCR analysis relative to control; type: cell-based
# T1 sequence (whole entry): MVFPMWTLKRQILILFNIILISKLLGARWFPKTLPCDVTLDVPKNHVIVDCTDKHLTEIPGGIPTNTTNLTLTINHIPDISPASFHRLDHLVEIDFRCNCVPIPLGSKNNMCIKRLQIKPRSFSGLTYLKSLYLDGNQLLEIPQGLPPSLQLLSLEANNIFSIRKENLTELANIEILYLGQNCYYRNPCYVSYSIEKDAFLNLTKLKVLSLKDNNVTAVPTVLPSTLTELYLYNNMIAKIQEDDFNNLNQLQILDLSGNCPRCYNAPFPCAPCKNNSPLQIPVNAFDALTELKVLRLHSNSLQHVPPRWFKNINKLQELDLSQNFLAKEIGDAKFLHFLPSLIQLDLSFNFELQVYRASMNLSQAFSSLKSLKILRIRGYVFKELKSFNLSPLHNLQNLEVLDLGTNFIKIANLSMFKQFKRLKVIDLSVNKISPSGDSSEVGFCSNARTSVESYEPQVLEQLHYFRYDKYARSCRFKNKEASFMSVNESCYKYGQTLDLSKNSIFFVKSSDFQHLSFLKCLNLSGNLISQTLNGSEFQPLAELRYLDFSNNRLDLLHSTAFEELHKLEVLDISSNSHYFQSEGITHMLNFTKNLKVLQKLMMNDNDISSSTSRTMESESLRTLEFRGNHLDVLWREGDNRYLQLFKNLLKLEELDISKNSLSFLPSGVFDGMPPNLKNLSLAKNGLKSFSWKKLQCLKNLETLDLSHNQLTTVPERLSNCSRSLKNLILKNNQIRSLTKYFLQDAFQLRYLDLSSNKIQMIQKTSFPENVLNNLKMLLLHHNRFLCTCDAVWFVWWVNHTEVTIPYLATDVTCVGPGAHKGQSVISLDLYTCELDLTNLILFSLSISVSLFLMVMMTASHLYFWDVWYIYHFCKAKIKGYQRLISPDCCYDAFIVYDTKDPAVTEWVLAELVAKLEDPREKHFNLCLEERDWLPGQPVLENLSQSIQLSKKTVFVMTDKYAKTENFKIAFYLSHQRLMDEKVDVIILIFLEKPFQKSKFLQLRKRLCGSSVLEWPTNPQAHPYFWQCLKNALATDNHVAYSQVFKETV
# [9] = Toxicity in C57BL/6 mouse assessed as liver fatty infiltration at 15 mg/kg, po administered once daily via gavage for 7 consecutive days and measured post-last dose by H and E staining based histomorphological analysis; type: organism-based; settings: in vivo
# [10] = Clearance in human liver microsomes at 100 uM by LC-MS/MS analysis relative to hepatic blood flow
# [11] = tested on: Mus musculus; test: as §1, with “suppression of suprapapillary thinning” for “reduction in MX2 mRNA expression”, “H and E staining” for “SYBR green dye”, “histopathological” for “qPCR”; type: functional
# [12] = in vitro; settings: human, plasma
# Description: Stability of the compound in human plasma assessed as parent compound remaining at 25 uM measured after 2 hrs by LC-MS/MS analysis
# [13] = Toxicity in C57BL/6 mouse assessed as capsular space obliteration at 15 mg/kg, po administered once daily via gavage for 7 consecutive days and measured post-last dose by H and E staining based histomorphological analysis; type: organism-based; settings: in vivo
# [14] = tested on: Mus musculus; test: as §1, with “suppression of pustule formation” for “reduction in MX2 mRNA expression”, “H and E staining” for “SYBR green dye”, “histopathological” for “qPCR”; type: functional
# [15] = Half life in human liver microsomes at 100 uM by LC-MS/MS analysis
# [16] = tested on: Mus musculus; test: Protection against imiquimod-induced C57BL/6 mouse model of psoriasis assessed as decrease in skin scaling at 15 mg/kg, po administered via gavage treated 1 day prior to imiquimod application and subsequent daily dosing for 7 consecutive days and measured post-last dose relative to control; type: functional; parameters: scale not given: the % may be the effect or the level left
# [17] = tested on: Mus musculus; test: as §1, with “MX1” for “MX2”; type: functional, organism-based
# [18] = Toxicity in C57BL/6 mouse assessed as lung immune infiltration at 15 mg/kg, po administered once daily via gavage for 7 consecutive days and measured post-last dose by H and E staining based histomorphological analysis; type: organism-based; settings: in vivo
# [19] = AUC (0 to 24 hrs) in C57BL/6 mouse at 15 mg/kg, po administered via gavage by LC-MS/MS analysis; type: ADME, organism-based; parameters: time < 24 hr, dose 15 mg/kg, route oral; settings: in vivo
# [20] = tested on: Mus musculus; test: as §1, with “suppression of papillomatosis” for “reduction in MX2 mRNA expression”, “H and E staining” for “SYBR green dye”, “histopathological” for “qPCR”; type: functional
# [21] = tested on: Mus musculus; test: as §1, with “suppression of microabscesses” for “reduction in MX2 mRNA expression”, “H and E staining” for “SYBR green dye”, “histopathological” for “qPCR”; type: functional
# [22] = tested on: Mus musculus; test: as §1, with “IFIT1” for “MX2”; type: functional, organism-based
# [23] = tested on: Mus musculus; test: as §1, with “suppression of vascular dilatation” for “reduction in MX2 mRNA expression”, “H and E staining” for “SYBR green dye”, “histopathological” for “qPCR”; type: functional
# [24] = biological target: T1, Toll-like receptor 7 (Homo sapiens); test: Antagonist activity at TLR7 in human PBMC assessed as inhibition of gardiquimod-induced TNFalpha production at 5 uM preincubated for 1 hr followed by gardiquimod stimulation and measured after overnight incubation by ELISA
smiles,measurement,setting,value
CCN1CCN(CCCn2cnc3c(N4CCN(CC)CC4)ncnc32)CC1,Activity,[1],Active
same,hepatic extraction ratio at 100 µM,[2],0.144
same,Activity,[3],100%
same,Activity,[4],Non-Toxic
same,Activity,[5],Non-Toxic
same,bioavailability,[6],70.8%
same,Activity,[7],100%
same,inhibition,[8],42.9%
same,Activity,[9],Non-Toxic
same,hepatic extraction ratio at 100 µM,[10],0.265
same,Activity,[11],100%
same,"remaining at 2 h, 25 µM",[12],95%
same,Activity,[13],Non-Toxic
same,Activity,[14],100%
same,half-life at 100 µM,[15],1.5 h
same,Activity,[16],100%
same,Activity,[17],Active
same,Activity,[18],Non-Toxic
same,AUC(0-t) at 24 h,[19],36100 ng·h/mL
same,Activity,[20],100%
same,Activity,[21],100%
same,Activity,[22],Active
same,Activity,[23],100%
same,inhibition,[24],Active
